Results: article PMC9250534, “Synthesis and direct assay of large macrocycle diversities by combinatorial late-stage modification at picomole scale” (Nature Communications, 2022)

What follows are compounds tested against MDM2 (Homo sapiens, UniProt Q00987) (assay: MDM2 binding screen of Libraries 3 and 4: displacement of fluorescent probe F-M8 at 750 nM macrocycle). Settings: Panel b, Library 3: 63 scaffolds combinatorially acylated with 15 carboxylic acids at 30 picomole scale; displacement of fluorescent peptide probe; macrocycle 750 nM.
Sequence of MDM2 (Q00987 whole entry): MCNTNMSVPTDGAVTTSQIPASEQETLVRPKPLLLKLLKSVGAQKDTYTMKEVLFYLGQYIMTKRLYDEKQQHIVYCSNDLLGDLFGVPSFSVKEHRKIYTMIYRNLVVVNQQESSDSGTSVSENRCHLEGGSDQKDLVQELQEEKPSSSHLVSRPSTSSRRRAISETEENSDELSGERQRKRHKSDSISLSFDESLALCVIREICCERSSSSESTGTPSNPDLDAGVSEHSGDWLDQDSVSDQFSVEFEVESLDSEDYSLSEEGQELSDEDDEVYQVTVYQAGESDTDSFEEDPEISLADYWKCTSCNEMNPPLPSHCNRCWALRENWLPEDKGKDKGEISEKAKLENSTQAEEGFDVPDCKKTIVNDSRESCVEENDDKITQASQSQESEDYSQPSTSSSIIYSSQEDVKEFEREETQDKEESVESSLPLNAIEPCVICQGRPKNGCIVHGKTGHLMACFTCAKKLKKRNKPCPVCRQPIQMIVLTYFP
Experimental: The cyclic peptide scaffolds required for Libraries 3 and 4 were synthesized as described for those used in Library 2. Due to the presence of many N-methylated amino acids which are more difficult to couple, 200 mM HOAt was applied together with HATU. The scaffolds were diluted to 2 mM in DMSO, and 15 nL were transferred using acoustic dispensing, followed by 15 nL DMSO containing carboxylic acids (40 mM, 20 equiv.), HBTU (40 mM) and DABCO (40 mM). After 6 h reaction at room temperature, 370 nL of DMSO was added to each well, followed by 5 μL of 100 mM Tris-Cl pH 7.4 containing 0.01% v/v Tween20, for quenching overnight.

fraction of fluorescent probe displaced | Compound
0.015 | O=C(/C=C/c1ccc(OCc2ccccc2)cc1)NC[C@H]1NC(=O)C2(CC2)CNC(=O)CCSSCCNC(=O)[C@H](Cc2c[nH]c3ccccc23)NC1=O [X-Amcp-D-Dap-Trp + Acid 110]
-0.00533 | O=C(/C=C/c1ccc2ccccc2c1)NC[C@H]1NC(=O)C2(CC2)CNC(=O)CCSSCCNC(=O)[C@H](Cc2c[nH]c3ccccc23)NC1=O [X-Amcp-D-Dap-Trp + Acid 112]
-0.00844 | O=C1CCSSCCNC(=O)[C@H](Cc2cccc3ccccc23)NC(=O)[C@H](CNC(=O)c2ccc3ccccc3c2)NC(=O)C2(CC2)CN1 [X-Amcp-Dap-1-NaI + Acid 107]
0.00133 | O=C(/C=C/c1ccc(OCc2ccccc2)cc1)NC[C@@H]1NC(=O)C2(CC2)CNC(=O)CCSSCCNC(=O)[C@H](Cc2cccc3ccccc23)NC1=O [X-Amcp-Dap-1-NaI + Acid 110]
-0.034 | O=C1CCSSCCNC(=O)[C@H](Cc2ccc3ccccc3c2)NC(=O)[C@H](CNC(=O)C2CC2c2ccccc2)NC(=O)C2(CC2)CN1 (stereo partly drawn) [X-Amcp-Dap-2-Nal + Acid 105]
-0.002 | O=C(/C=C/c1ccncc1)NC[C@@H]1NC(=O)C2(CC2)CNC(=O)CCSSCCNC(=O)[C@H](Cc2ccc3ccccc3c2)NC1=O [X-Amcp-Dap-2-Nal + Acid 106]
0.031 | O=C1CCSSCCNC(=O)[C@H](Cc2ccc3ccccc3c2)NC(=O)[C@H](CNC(=O)c2ccc3ccccc3c2)NC(=O)C2(CC2)CN1 [X-Amcp-Dap-2-Nal + Acid 107]
0.008 | O=C(/C=C/c1ccc(Cl)cc1)NC[C@@H]1NC(=O)C2(CC2)CNC(=O)CCSSCCNC(=O)[C@H](Cc2ccc3ccccc3c2)NC1=O [X-Amcp-Dap-2-Nal + Acid 108]
0.041 | O=C(/C=C/c1ccc(OCc2ccccc2)cc1)NC[C@@H]1NC(=O)C2(CC2)CNC(=O)CCSSCCNC(=O)[C@H](Cc2ccc3ccccc3c2)NC1=O [X-Amcp-Dap-2-Nal + Acid 110]
0.00133 | O=C1CCSSCCNC(=O)[C@H](Cc2ccc3ccccc3c2)NC(=O)[C@H](CNC(=O)c2cccc(Oc3ccccc3)c2)NC(=O)C2(CC2)CN1 [X-Amcp-Dap-2-Nal + Acid 111]
0.015 | O=C(/C=C/c1ccc2ccccc2c1)NC[C@@H]1NC(=O)C2(CC2)CNC(=O)CCSSCCNC(=O)[C@H](Cc2ccc3ccccc3c2)NC1=O [X-Amcp-Dap-2-Nal + Acid 112]
0.008 | O=C(/C=C/c1ccc2ccccc2c1)NC[C@@H]1NC(=O)C2(CC2)CNC(=O)CCSSCCNC(=O)[C@H](Cc2c[nH]c3cc(Cl)ccc23)NC1=O [X-Amcp-Dap-Cl-Trp + Acid 112]
0.008 | O=C(/C=C/c1ccc(OCc2ccccc2)cc1)NC[C@@H]1NC(=O)C2(CC2)CNC(=O)CCSSCCNC(=O)[C@@H](Cc2c[nH]c3ccccc23)NC1=O [X-Amcp-Dap-D-Trp + Acid 110]
0.015 | O=C(/C=C/c1ccc2ccccc2c1)NC[C@@H]1NC(=O)C2(CC2)CNC(=O)CCSSCCNC(=O)[C@@H](Cc2c[nH]c3ccccc23)NC1=O [X-Amcp-Dap-D-Trp + Acid 112]
0.008 | Cn1cc(C[C@@H]2NC(=O)[C@H](CNC(=O)/C=C/c3ccc(OCc4ccccc4)cc3)NC(=O)C3(CC3)CNC(=O)CCSSCCNC2=O)c2ccccc21 [X-Amcp-Dap-Me-Trp + Acid 110]

The next lines start with the compound.

Compound | fraction of fluorescent probe displaced
CN1C(=O)[C@@H](CNC(=O)c2ccc(Cl)s2)NC(=O)C2(CC2)CNC(=O)CCSSCCNC(=O)[C@@H]1Cc1c[nH]c2ccccc12 [X-Amcp-D-Dap-NMe-Trp + Acid 14] | 0.008
CN1C(=O)[C@@H](CNC(=O)/C=C/c2ccncc2)NC(=O)C2(CC2)CNC(=O)CCSSCCNC(=O)[C@@H]1Cc1c[nH]c2ccccc12 [X-Amcp-D-Dap-NMe-Trp + Acid 106] | -0.015
CN1C(=O)[C@@H](CNC(=O)c2ccc3ccccc3c2)NC(=O)C2(CC2)CNC(=O)CCSSCCNC(=O)[C@@H]1Cc1c[nH]c2ccccc12 [X-Amcp-D-Dap-NMe-Trp + Acid 107] | 0.031
CN1C(=O)[C@@H](CNC(=O)c2cccc(Oc3ccccc3)c2)NC(=O)C2(CC2)CNC(=O)CCSSCCNC(=O)[C@@H]1Cc1c[nH]c2ccccc12 [X-Amcp-D-Dap-NMe-Trp + Acid 111] | 0.00133
CN1C(=O)[C@@H](CNC(=O)CCS(=O)(=O)c2ccccc2)NC(=O)C2(CC2)CNC(=O)CCSSCCNC(=O)[C@@H]1Cc1c[nH]c2ccccc12 [X-Amcp-D-Dap-NMe-Trp + Acid 114] | 0.055
O=C1CCSSCCNC(=O)[C@H](Cc2c[nH]c3ccccc23)NC(=O)[C@@H](CNC(=O)c2ccc(Cl)s2)NC(=O)C2(CC2)CN1 [X-Amcp-D-Dap-Trp + Acid 14] | -0.00533
O=C1CCSSCCNC(=O)[C@H](Cc2c[nH]c3ccccc23)NC(=O)[C@@H](CNC(=O)c2ccc(Cl)cc2)NC(=O)C2(CC2)CN1 [X-Amcp-D-Dap-Trp + Acid 25] | -0.00533
O=C1CCSSCCNC(=O)[C@H](Cc2c[nH]c3ccccc23)NC(=O)[C@@H](CNC(=O)C2CC2c2ccccc2)NC(=O)C2(CC2)CN1 (stereo partly drawn) [X-Amcp-D-Dap-Trp + Acid 105] | -0.015
O=C1CCSSCCNC(=O)[C@H](Cc2c[nH]c3ccccc23)NC(=O)[C@@H](CNC(=O)c2ccc3ccccc3c2)NC(=O)C2(CC2)CN1 [X-Amcp-D-Dap-Trp + Acid 107] | 0.024
O=C1CCSSCCNC(=O)[C@H](Cc2c[nH]c3ccccc23)NC(=O)[C@@H](CNC(=O)c2cccc(Oc3ccccc3)c2)NC(=O)C2(CC2)CN1 [X-Amcp-D-Dap-Trp + Acid 111] | 0.008
O=C1CCSSCCNC(=O)[C@H](Cc2cccc3ccccc23)NC(=O)[C@H](CNC(=O)c2ccc(Cl)s2)NC(=O)C2(CC2)CN1 [X-Amcp-Dap-1-NaI + Acid 14] | -0.019
O=C1CCSSCCNC(=O)[C@H](Cc2cccc3ccccc23)NC(=O)[C@H](CNC(=O)c2ccc(Cl)cc2)NC(=O)C2(CC2)CN1 [X-Amcp-Dap-1-NaI + Acid 25] | 0.008
O=C1CCSSCCNC(=O)[C@H](Cc2cccc3ccccc23)NC(=O)[C@H](CNC(=O)c2cccc(Oc3ccccc3)c2)NC(=O)C2(CC2)CN1 [X-Amcp-Dap-1-NaI + Acid 111] | 0.008
CC(Oc1cccc(Cl)c1)C(=O)NC[C@@H]1NC(=O)C2(CC2)CNC(=O)CCSSCCNC(=O)[C@H](Cc2cccc3ccccc23)NC1=O (stereo partly drawn) [X-Amcp-Dap-1-NaI + Acid 113] | -0.012
O=C(CCS(=O)(=O)c1ccccc1)NC[C@@H]1NC(=O)C2(CC2)CNC(=O)CCSSCCNC(=O)[C@H](Cc2cccc3ccccc23)NC1=O [X-Amcp-Dap-1-NaI + Acid 114] | -0.00533
O=C1CCSSCCNC(=O)[C@H](Cc2cccc3ccccc23)NC(=O)[C@H](CNC(=O)C2COc3ccccc3O2)NC(=O)C2(CC2)CN1 (stereo partly drawn) [X-Amcp-Dap-1-NaI + Acid 115] | 0.00133
O=C1CCSSCCNC(=O)[C@H](Cc2c[nH]c3cc(Cl)ccc23)NC(=O)[C@H](CNC(=O)c2ccc3ccccc3c2)NC(=O)C2(CC2)CN1 [X-Amcp-Dap-Cl-Trp + Acid 107] | 0.00455
O=C(/C=C/c1ccc(Cl)cc1)NC[C@@H]1NC(=O)C2(CC2)CNC(=O)CCSSCCNC(=O)[C@H](Cc2c[nH]c3cc(Cl)ccc23)NC1=O [X-Amcp-Dap-Cl-Trp + Acid 108] | 0.00133
O=C1CCSSCCNC(=O)[C@H](Cc2c[nH]c3cc(Cl)ccc23)NC(=O)[C@H](CNC(=O)c2cccc(Oc3ccccc3)c2)NC(=O)C2(CC2)CN1 [X-Amcp-Dap-Cl-Trp + Acid 111] | 0.008
O=C1CCSSCCNC(=O)[C@H](Cc2c[nH]c3cc(Cl)ccc23)NC(=O)[C@H](CNC(=O)C2COc3ccccc3O2)NC(=O)C2(CC2)CN1 (stereo partly drawn) [X-Amcp-Dap-Cl-Trp + Acid 115] | -0.012
O=C1CCSSCCNC(=O)[C@@H](Cc2c[nH]c3ccccc23)NC(=O)[C@H](CNC(=O)C2CC2c2ccccc2)NC(=O)C2(CC2)CN1 (stereo partly drawn) [X-Amcp-Dap-D-Trp + Acid 105] | -0.015
O=C1CCSSCCNC(=O)[C@@H](Cc2c[nH]c3ccccc23)NC(=O)[C@H](CNC(=O)c2ccc3ccccc3c2)NC(=O)C2(CC2)CN1 [X-Amcp-Dap-D-Trp + Acid 107] | 0.050
O=C1CCSSCCNC(=O)[C@@H](Cc2c[nH]c3ccccc23)NC(=O)[C@H](CNC(=O)c2cccc(Oc3ccccc3)c2)NC(=O)C2(CC2)CN1 [X-Amcp-Dap-D-Trp + Acid 111] | 0.00133
O=C(CCS(=O)(=O)c1ccccc1)NC[C@@H]1NC(=O)C2(CC2)CNC(=O)CCSSCCNC(=O)[C@@H](Cc2c[nH]c3ccccc23)NC1=O [X-Amcp-Dap-D-Trp + Acid 114] | 0.035
Cn1cc(C[C@@H]2NC(=O)[C@H](CNC(=O)c3ccc(Cl)s3)NC(=O)C3(CC3)CNC(=O)CCSSCCNC2=O)c2ccccc21 [X-Amcp-Dap-Me-Trp + Acid 14] | 0.008
Cn1cc(CC2NC(=O)C(CNC(=O)C3CC3c3ccccc3)NC(=O)C3(CC3)CNC(=O)CCSSCCNC2=O)c2ccccc21 (stereo not drawn) [X-Amcp-Dap-Me-Trp + Acid 105] | -0.021
Cn1cc(C[C@@H]2NC(=O)[C@H](CNC(=O)/C=C/c3ccc(Cl)cc3)NC(=O)C3(CC3)CNC(=O)CCSSCCNC2=O)c2ccccc21 [X-Amcp-Dap-Me-Trp + Acid 108] | 0.008
